This assay relates to BDF1 mice, P388 leukemia ip, median survival T/C. Put plainly: NCI In Vivo Anticancer Drug Screen. Data for tumor model P388 Leukemia (intraperitoneal) in B6D2F1 (BDF1) mice. The settings on record: endpoint: median survival time, higher = longer survival. The method in brief: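 Antitumour effect was judged in vivo: survival in drug-treated mice, normalised to that of vehicle-dosed controls, gives the reported T/C.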

The mark [1] stands for this setting: dose: 50.0 mg/kg/injection, schedule: Q01DX009 (ip), vehicle: saline.
Setting [2] is: dose: 100.0 mg/kg/injection, schedule: Q01DX009 (ip), vehicle: saline.
Where [3] appears, read: dose: 12.5 mg/kg/injection, schedule: Q01DX009 (ip), vehicle: saline with Tween-80.
[4] abbreviates: dose: 25.0 mg/kg/injection, schedule: Q01DX009 (ip), vehicle: saline with Tween-80.
[5] abbreviates: dose: 50.0 mg/kg/injection, schedule: Q01DX009 (ip), vehicle: saline with Tween-80.
Setting [6] is: dose: 200.0 mg/kg/injection, schedule: Q01DX009 (ip), vehicle: saline with Tween-80.
The mark [7] stands for this setting: dose: 100.0 mg/kg/injection, schedule: Q01DX009 (ip), vehicle: saline with Tween-80.
Setting [8] is: dose: 100.0 mg/kg/injection, schedule: Q04DX003 (ip), vehicle: saline.
Where [9] appears, read: dose: 200.0 mg/kg/injection, schedule: Q04DX003 (ip), vehicle: saline.
The mark [10] stands for this setting: dose: 400.0 mg/kg/injection, schedule: Q04DX003 (ip), vehicle: saline.
Setting [11] is: dose: 200.0 mg/kg/injection, schedule: Q01DX009 (ip), vehicle: Klucel (hydroxypropylcellulose) (HPC).
Setting [12] is: dose: 400.0 mg/kg/injection, schedule: Q01DX009 (ip), vehicle: Klucel (hydroxypropylcellulose) (HPC).
Where [13] appears, read: dose: 25.0 mg/kg/injection, schedule: Q04DX003 (ip), vehicle: saline.
Where [14] appears, read: dose: 50.0 mg/kg/injection, schedule: Q04DX003 (ip), vehicle: saline.
The mark [15] stands for this setting: dose: 100.0 mg/kg/injection, schedule: Q04DX003 (ip), vehicle: saline with Tween-80.

From PubChem BioAssay AID328 (DTP/NCI, 2004) come the findings set out here.

Molecules are shown by their SMILES. Values joined by “and” are separate entries in the source; they are usually repeats but may differ in a detail not shown here. Equal entries are not always repeated. Toxic doses and inconclusive results are not listed.

For `O=C1c2ccccc2C(=O)C(N2CCOCC2)C1Cl` (stereo not given), the T/C is 98 % of control (dose: 3.0 mg/kg/injection, schedule: Q01DX009 (ip), vehicle: saline with Tween-80); 97 % of control (dose: 6.0 mg/kg/injection, schedule: Q01DX009 (ip), vehicle: saline with Tween-80); 100 % of control (dose: 12.0 mg/kg/injection, schedule: Q01DX009 (ip), vehicle: saline with Tween-80).
For `CCC(CCC(C)C1CCC2C3CC=C4CC(O)CCC4(C)C3CCC12C)C(C)C` (stereo not given) (tested in a mixture with another compound), under “dose: 12.5 mg/kg/injection, schedule: Q#A X020 (ip), vehicle: water”, the T/C is 90 % of control.
For the compound `CCC1OCCN1C(C)C` (stereo not given), the T/C is, setting by setting: under setting [1], 108 % of control; under setting [2], 108 % of control.
Consider `NC(=O)c1c(N)sc2c1CCCC2`, for which the T/C by setting is: (dose: 6.25 mg/kg/injection, schedule: Q01DX009 (ip), vehicle: saline with Tween-80) 86 % of control; under setting [3], 86 % of control; under setting [4], 95 % of control.
As to `C=C(C)C(=O)NCCCCCC(=O)Oc1ccc([N+](=O)[O-])cc1`, the T/C under setting [3] was 95 % of control; the T/C under setting [4] is 116 % of control; the T/C under setting [5] was 86 % of control and 106 % of control; the T/C under setting [6] was 86 % of control.
On to `COc1cc(Nc2ncnc(N)c2[N+](=O)[O-])cc(OC)c1OC`, for which the T/C runs as follows: (dose: 100.0 mg/kg/injection, schedule: Q01DX001 (ip), vehicle: saline with Tween-80) 87 % of control; (dose: 400.0 mg/kg/injection, schedule: Q01DX001 (ip), vehicle: saline with Tween-80) 87 % of control.
Regarding `CCN(CC)C(=O)Cn1cc(F)c(NC(C)=O)nc1=O`, the T/C was 90 % of control under setting [7]; 95 % of control under setting [8]; 105 % of control under setting [6]; 109 % of control under setting [9]; 110 % of control (dose: 400.0 mg/kg/injection, schedule: Q01DX009 (ip), vehicle: saline with Tween-80); 113 % of control under setting [10].
With `O=C1OC(c2ccccc2)(c2ccccc2)c2ccccc21`, the T/C runs as follows: (dose: 45.0 mg/kg/injection, schedule: Q01DX009 (ip), vehicle: Klucel (hydroxypropylcellulose) (HPC)) 100 % of control; (dose: 65.0 mg/kg/injection, schedule: Q01DX009 (ip), vehicle: Klucel (hydroxypropylcellulose) (HPC)) 90 % of control; (dose: 150.0 mg/kg/injection, schedule: Q01DX009 (ip), vehicle: Klucel (hydroxypropylcellulose) (HPC)) 90 % of control; under setting [11], 90 % of control; under setting [12], 86 % of control.
Consider `CC(C)=CBr`, for which the T/C was 92 % of control (dose: 198.0 mg/kg/injection, schedule: Q01DX005 (ip), vehicle: saline) and 100 % of control (dose: 300.0 mg/kg/injection, schedule: Q01DX005 (ip), vehicle: saline).
Turning to `OC1CCCCC2CC12` (stereo not given), the T/C is, setting by setting: under setting [5], 101 % of control; under setting [7], 101 % of control; under setting [6], 102 % of control.
Take `COc1ccc(NC(=O)C(C)C(C)=O)cc1` (stereo not given): the T/C is 91 % of control (dose: 12.5 mg/kg/injection, schedule: Q01DX009 (ip), vehicle: saline); 94 % of control (dose: 25.0 mg/kg/injection, schedule: Q01DX009 (ip), vehicle: saline); 102 % of control under setting [13]; 98 % of control under setting [1]; 93 % of control under setting [14]; 116 % of control under setting [2]. Besides, the T/C is 100 % of control under setting [8]; 100 % of control (dose: 200.0 mg/kg/injection, schedule: Q01DX009 (ip), vehicle: saline); 109 % of control under setting [9]; 108 % of control (dose: 400.0 mg/kg/injection, schedule: Q01DX009 (ip), vehicle: saline); 111 % of control under setting [10].
As for `COc1cc([N+](=O)[O-])ccc1N`, the T/C under setting [15] was 100 % of control.
Take `CCCOc1ccc(-c2nc(-c3ccc(N=Cc4ccc(N(CCOS(C)(=O)=O)CCOS(C)(=O)=O)cc4C)cc3)cs2)cc1`: the T/C by setting is: (dose: 25.0 mg/kg/injection, schedule: Q04DX003 (ip), vehicle: saline with Tween-80) 156 % of control; (dose: 50.0 mg/kg/injection, schedule: Q04DX003 (ip), vehicle: saline with Tween-80) 175 % of control; under setting [15], 166 % of control.
Consider `O=C(NO)Nc1nc(Cl)c(Cl)nc1Cl`, for which the T/C runs as follows: (dose: 3.12 mg/kg/injection, schedule: Q01DX009 (ip), vehicle: water) 104 % of control; (dose: 6.25 mg/kg/injection, schedule: Q01DX009 (ip), vehicle: water) 110 % of control; (dose: 6.25 mg/kg/injection, schedule: Q04DX003 (ip), vehicle: water) 98 % of control and 101 % of control; (dose: 12.5 mg/kg/injection, schedule: Q01DX009 (ip), vehicle: water) 110 % of control; (dose: 12.5 mg/kg/injection, schedule: Q04DX003 (ip), vehicle: water) 100 % of control and 113 % of control; (dose: 25.0 mg/kg/injection, schedule: Q01DX009 (ip), vehicle: water) 118 % of control. The T/C is, setting by setting: (dose: 25.0 mg/kg/injection, schedule: Q04DX003 (ip), vehicle: water) 98 % of control and 118 % of control; (dose: 50.0 mg/kg/injection, schedule: Q04DX003 (ip), vehicle: water) 100 % of control and 109 % of control; (dose: 100.0 mg/kg/injection, schedule: Q01DX009 (ip), vehicle: water) 118 % of control; (dose: 100.0 mg/kg/injection, schedule: Q04DX003 (ip), vehicle: water) 109 % of control.
`COc1ccc(N2C(=O)CC(Sc3ccccc3N)C2=O)cc1` (stereo not given): the T/C reads like this: (dose: 50.0 mg/kg/injection, schedule: Q01DX001 (ip), vehicle: Klucel (hydroxypropylcellulose) (HPC)) 100 % of control; (dose: 100.0 mg/kg/injection, schedule: Q01DX001 (ip), vehicle: Klucel (hydroxypropylcellulose) (HPC)) 104 % of control.
For the compound `COC(=O)C1C(O)C(C)C(OC(C)=O)C(C)/C=C\C=C(C)C(=O)Nc2c(C)c(OC(C)=O)c3c(c2O)C(=O)C(C)=C2OCOC(=C23)C(C)=CC(C)(O)C(O)C(C)C1O` (stereo not given), the T/C by setting is: (dose: 100.0 mg/kg/injection, schedule: Q01DX009 (ip), vehicle: Klucel (hydroxypropylcellulose) (HPC)) 101 % of control; under setting [11], 106 % of control; under setting [12], 110 % of control.
Take `O=[N+]([O-])c1cc([N+](=O)[O-])c2ccccc2c1NS(=O)(=O)c1ccc(Br)cc1`: the T/C runs as follows: under setting [4], 112 % of control; under setting [5], 113 % of control.
On to `CCCCOP(=O)(CCCC)OCCCC`, for which the T/C runs as follows: under setting [3], 109 % of control; (dose: 12.5 mg/kg/injection, schedule: Q04DX003 (ip), vehicle: saline) 100 % of control; under setting [4], 104 % of control; under setting [13], 104 % of control; under setting [5], 109 % of control; under setting [14], 104 % of control.
As to `Cc1n(Cc2ccccc2)c2c([n+]1C)C(=O)c1ccccc1C2=O`, the T/C (dose: 0.5 mg/kg/injection, schedule: Q01DX010 (ip), vehicle: saline) is 100 % of control; the T/C (dose: 1.0 mg/kg/injection, schedule: Q01DX010 (ip), vehicle: saline) was 109 % of control; the T/C (dose: 2.0 mg/kg/injection, schedule: Q01DX010 (ip), vehicle: saline) was 113 % of control; the T/C (dose: 125.0 micrograms/kg/injection, schedule: Q01DX009 (ip), vehicle: Klucel (hydroxypropylcellulose) (HPC)) was 105 % of control; the T/C (dose: 250.0 micrograms/kg/injection, schedule: Q01DX009 (ip), vehicle: Klucel (hydroxypropylcellulose) (HPC)) was 100 % of control; the T/C (dose: 500.0 micrograms/kg/injection, schedule: Q01DX009 (ip), vehicle: Klucel (hydroxypropylcellulose) (HPC)) was 110 % of control. Besides, the T/C reads like this: (dose: 1000.0 micrograms/kg/injection, schedule: Q01DX009 (ip), vehicle: Klucel (hydroxypropylcellulose) (HPC)) 115 % of control; (dose: 2000.0 micrograms/kg/injection, schedule: Q01DX009 (ip), vehicle: Klucel (hydroxypropylcellulose) (HPC)) 120 % of control.
Consider `CCC(C)OP1(=S)OCC(C)O1` (stereo not given), for which the T/C (dose: 100.0 mg/kg/injection, schedule: Q04DX002 (ip), vehicle: saline with Tween-80) was 115 % of control; the T/C (dose: 200.0 mg/kg/injection, schedule: Q04DX002 (ip), vehicle: saline with Tween-80) was 106 % of control; the T/C (dose: 400.0 mg/kg/injection, schedule: Q04DX002 (ip), vehicle: saline with Tween-80) is 118 % of control.
